In patent publication US20260085034A1, “N-(BENZHYDRYL)CYCLOALKYLCARBOXAMIDE DERIVATIVES AS INHIBITORS OF GLYCOGEN SYNTHASE 1 (GYS1) AND METHODS OF USE THEREOF” (Maze Therapeutics, Inc., priority 2022, published 2026):

Key:
[1] = target: T1, recombinant hGYS2/GN1 protein (Homo sapiens, UniProt P54840); experiment: GYS2 coupled enzyme assay (PK/LDH); assay type: biochemical; details: geometric mean of at least 2 assay runs; NADH absorbance at 340 nm
T1 sequence (P54840 1-703): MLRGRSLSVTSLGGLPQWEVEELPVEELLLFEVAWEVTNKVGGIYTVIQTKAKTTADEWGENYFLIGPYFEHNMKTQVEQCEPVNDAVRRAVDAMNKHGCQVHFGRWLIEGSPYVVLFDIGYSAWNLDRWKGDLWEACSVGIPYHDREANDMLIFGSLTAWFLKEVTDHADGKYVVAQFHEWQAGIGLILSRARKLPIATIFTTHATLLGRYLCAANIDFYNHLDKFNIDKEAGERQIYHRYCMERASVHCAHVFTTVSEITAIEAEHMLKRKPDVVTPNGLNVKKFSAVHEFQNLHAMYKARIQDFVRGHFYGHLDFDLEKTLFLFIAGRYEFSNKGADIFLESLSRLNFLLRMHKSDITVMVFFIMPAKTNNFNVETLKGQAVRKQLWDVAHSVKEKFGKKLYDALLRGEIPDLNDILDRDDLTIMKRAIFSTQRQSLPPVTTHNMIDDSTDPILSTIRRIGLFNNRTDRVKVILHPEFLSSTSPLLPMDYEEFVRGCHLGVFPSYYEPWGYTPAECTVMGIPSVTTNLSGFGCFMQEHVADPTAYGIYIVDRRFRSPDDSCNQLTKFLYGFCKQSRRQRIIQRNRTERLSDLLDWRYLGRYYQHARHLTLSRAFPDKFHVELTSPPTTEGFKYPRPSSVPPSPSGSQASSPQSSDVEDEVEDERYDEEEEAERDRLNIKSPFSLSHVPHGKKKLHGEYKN
T1 sequence (P46976 1-350 partner): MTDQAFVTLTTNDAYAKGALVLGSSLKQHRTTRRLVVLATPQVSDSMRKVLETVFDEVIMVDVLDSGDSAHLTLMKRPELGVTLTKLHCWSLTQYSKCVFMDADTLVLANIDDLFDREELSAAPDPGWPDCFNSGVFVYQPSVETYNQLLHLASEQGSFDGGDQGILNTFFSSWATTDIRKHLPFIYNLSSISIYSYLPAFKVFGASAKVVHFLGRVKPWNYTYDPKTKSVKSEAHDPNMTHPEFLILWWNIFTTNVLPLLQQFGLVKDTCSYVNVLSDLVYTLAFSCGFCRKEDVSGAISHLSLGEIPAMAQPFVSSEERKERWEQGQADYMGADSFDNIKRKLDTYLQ
Excerpt: The GYS2 coupled enzyme assay is a kinetic biochemical assay that indirectly quantifies the rate of glycogen synthesis by coupling the conversion of GYS2 substrate UDP-glucose into UDP with downstream enzymatic reactions. UDP is released from UDP-glucose as glucose monomers are linked into the growing glycogen strand by GYS2. The coupled assay then proceeds with pyruvate kinase utilizing UDP and phospho(enol)pyruvate (PEP) to form pyruvate. Lactate dehydrogenase then converts pyruvate and NADH into lactate and NAD+. Oxidation of NADH to NAD+ can be measured continuously with a plate reader by quantifying the decrease in NADH absorbance at 340 nm over time.
Compounds that inhibit the hGYS2 enzyme and, subsequently, the downstream conversion of NADH to NAD+, were tested using assay ready plates (black, clear bottom 384 well plates) in a final DMSO reaction volume of 2.5% DMSO. The Assay Buffer contained 50 mM Tris pH 7.5, 2 mM MgCl2, and 100 mM KCl. Fresh stocks of BSA at a final concentration of 0.02% and TCEP 1 mM were added before splitting buffer into hGYS2 buffer and substrate buffer. To the hGYS2 buffer, rabbit liver glycogen was added at a final concentration of 0.2% glycogen. Glucose-6-Phosphate was added at 2 mM, recombinant hGYS2/GN1 protein was added at 200 nM to the substrate buffer, phosphoenolpyruvate (PEP) was added at 2 mM, UDP-Glucose was added at 2 mM, NADH was added at 0.6 mM, and Pyruvate Kinase/Lactate Dehydrogenase was added at 20 units/mL. The reaction was initiated by mixing hGYS2 buffer and substrate buffer at a 1:1 ratio. Both buffers were plated using a liquid dispensing device with hGYS2 buffer plated first followed by the substrate buffer. Plates were spun briefly to eliminate air bubbles and are immediately read in continuous mode at an absorbance of 340 nm, for 10 time points in one-minute increments, for a total of 10 minutes. The slope from these 10 time points was normalized to the positive and negative control wells. The duplicate % inhibition values are then averaged and fit to a Hill equation for dose response according to the Levenberg-Marquardt algorithm with the Hill equation maximum set to 100 and the minimum set to 0.
The results are shown in Table 5 below, which reports the IC50 of each compound. Unless otherwise specified, IC50 values are reported as the geometric mean of at least 2 assay runs on separate days. As shown in the table below, the compounds of the present invention are not potent inhibitors of human GYS2. […] Each run represents the average of a technical replicate, where each compound was assayed twice in the same plate.

[2] = target: T2, recombinant hGYS1/GN1 protein (Homo sapiens, UniProt P13807); experiment: GYS1 coupled enzyme assay (PK/LDH); assay type: biochemical; details: geometric mean of at least 2 assay runs; NADH absorbance at 340 nm
T2 sequence (P13807 1-737): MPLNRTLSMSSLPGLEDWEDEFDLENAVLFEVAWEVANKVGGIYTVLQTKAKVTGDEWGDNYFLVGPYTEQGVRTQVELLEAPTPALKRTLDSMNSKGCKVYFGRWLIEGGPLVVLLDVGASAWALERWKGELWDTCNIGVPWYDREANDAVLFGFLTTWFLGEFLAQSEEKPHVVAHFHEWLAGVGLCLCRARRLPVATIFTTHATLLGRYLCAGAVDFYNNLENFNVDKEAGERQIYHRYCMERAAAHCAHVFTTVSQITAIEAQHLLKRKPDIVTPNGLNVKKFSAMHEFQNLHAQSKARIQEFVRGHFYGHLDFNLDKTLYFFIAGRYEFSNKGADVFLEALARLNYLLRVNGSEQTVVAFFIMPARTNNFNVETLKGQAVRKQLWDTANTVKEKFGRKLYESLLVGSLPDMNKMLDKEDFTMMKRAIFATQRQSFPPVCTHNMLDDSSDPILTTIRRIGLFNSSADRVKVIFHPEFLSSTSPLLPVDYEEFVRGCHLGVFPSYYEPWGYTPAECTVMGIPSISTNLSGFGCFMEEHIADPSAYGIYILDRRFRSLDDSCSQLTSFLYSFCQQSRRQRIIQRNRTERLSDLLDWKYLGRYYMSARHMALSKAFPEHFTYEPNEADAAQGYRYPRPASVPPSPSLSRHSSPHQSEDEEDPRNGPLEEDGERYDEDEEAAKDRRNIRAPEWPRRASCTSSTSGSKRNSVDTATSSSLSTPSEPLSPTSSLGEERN
T2 sequence (P46976 1-350 partner): T1 sequence (P46976 1-350 partner)
In short: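 Recombinant hGYS1/GN1 (50 nM) with 0.8 mM UDP-glucose, 0.2% glycogen and 1 mM glucose-6-phosphate in Tris pH 7.5, 2.5% DMSO. UDP formation coupled via PK/LDH to NADH oxidation, read at 340 nm over 10 min. Control-normalized slopes fit to Hill equation; IC50 as geometric mean of ≥2 runs.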

| Compound | IC50 [1] [µM] | IC50 [2] [µM] |
| --- | --- | --- |
| CC(C)c1ccc([C@@H](NC(=O)C2CC2)c2ccccc2NC(=O)C2COC2)cc1 [compound 60, (R)-N-(2-(cyclopropanecarboxamido(4-isopropylphenyl)methyl)phenyl)oxetane-3-carboxamide] | > 100 | 0.521 |
| CC(C)c1ccc([C@@H](NC(=O)C2CC2)c2cccc(O)c2)cc1 [compound 62, (R)-N-((3-hydroxyphenyl)(4-isopropylphenyl)methyl)cyclopropanecarboxamide] | > 100 | 0.376 |
| COc1cccc([C@H](NC(=O)C2CC2)c2ccc(C(C)C)cc2)c1C [compound 63, (R)-N-((4-isopropylphenyl)(3-methoxy-2-methylphenyl)methyl)cyclopropanecarboxamide] | > 100 | 1.43 |
| CC(C)c1ccc([C@@H](NC(=O)C2CC2)c2ccccc2O)cc1 [compound 67, (R)-N-((2-hydroxyphenyl)(4-isopropylphenyl)methyl)cyclopropanecarboxamide] | > 100 | 0.293 |

Results, then the compound that gave them:

| IC50 [1] [µM] | IC50 [2] [µM] | Compound |
| --- | --- | --- |
| > 97.4 | 0.663 | CC(C)c1ccc([C@@H](NC(=O)C2CC2)c2ccc(O)cc2)cc1 [compound 68, (R)-N-((4-hydroxyphenyl)(4-isopropylphenyl)methyl)cyclopropanecarboxamide] |
| > 100 | 0.786 | COc1cccc([C@H](NC(=O)C2CC2)c2ccc(C(C)C)cc2)c1 [compound 70, (R)-N-((4-isopropylphenyl)(3-methoxyphenyl)methyl)cyclopropanecarboxamide] |
| > 100 | 2.68 | COc1ccc([C@H](NC(=O)C2CC2)c2ccc(C(C)C)cc2)cc1 [compound 72, (R)-N-((4-isopropylphenyl)(4-methoxyphenyl)methyl)cyclopropanecarboxamide] |
| > 100 | 0.706 | CC(C)c1ccc([C@@H](NC(=O)C2CC2)c2ccccc2)cc1 [compound 73, (S)-N-((4-isopropylphenyl)(phenyl)methyl)cyclopropanecarboxamide] |
